Laboratory results: article PMC8869984, “Multifunctional Silver(I) Complexes with Metronidazole Drug Reveal Antimicrobial Properties and Antitumor Activity against Human Hepatoma and Colorectal Adenocarcinoma Cells” (Cancers, 2022)

Tests used:
HepG2 cells = assay: TPC assay (total protein content), 72 h exposure; type: cell-based, human; details: mean ± SD, n = 3
Method: The human hepatoma (HepG2) and colorectal adenocarcinoma (Caco-2) cells were purchased from the American Type Culture Collection: ATCC HB-8065 and ATCC HTB-37, respectively. These cells were cultured in Minimum Essential Medium Eagle (MEME) (ATCC). The murine fibroblasts cell line (Balb/c 3T3 clone A31) (gift from the Department of Swine Diseases of the National Veterinary Research Institute in Pulawy) was cultured in Dulbecco’s Modified Eagle Medium (DMEM) (ATCC). The media were supplemented with 10% BCS (Balb/c 3T3), 10% FBS (HepG2), 20% FBS (Caco-2), 1% L-glutamine, 1% antibiotic solution. The cells were maintained in 75 cm^2 cell culture flasks (NUNC) in a humidified incubator at 37 °C in an atmosphere of 5% CO2. The medium was refreshed every two or three days, and the cells were trypsinized by 0.25% trypsin–0.02% EDTA after reaching 70–80% confluence. Single cell suspensions were prepared and adjusted to a density of 2 × 10^5 cell/mL^−1 (HepG2), 1 × 10^5 cell/mL^−1 (Caco-2) and 5 × 10^4 cell/mL^−1 (Balb/c 3T3). The cell suspension was transferred to 96-well plates (100 µL/well) and incubated for 24 h before the exposure to the studied compounds. Stock solutions of ligands and metal complexes were prepared in sterile water and diluted with culture medium to obtain a concentration range from 0.1 to 10 µM. The final concentration of sterile water was 0.1% in the medium. […] As a negative control, cultured cells were grown in the absence of studied compounds. Each concentration was tested in six replicates in three independent experiments. Cytotoxicity was assessed after 72 h of exposure of the cells to compounds. The medium was not changed during the incubation time.
This assay is based upon staining the total cellular protein (proliferation). After the incubation, the medium containing the drug was removed, and 100 µL Coomassie brilliant blue R-250 dye was added to each well. The plate was shaken for 10 min. Then, the stain was removed and the cells were rinsed twice with 100 µL of washing solution (glacial acetic acid/ethanol/water, 5:10:85, v:v:v). After that, 100 µL of the desorbing solution (1 M potassium acetate) was added, and plates were shaken again for 10 min. The absorbance was measured at 595 nm in a microplate reader Synergy HTX multi-mode reader (BioTek® Instruments Inc., Winooski, VT, USA) using a blank as a reference. Cytotoxicity was expressed as a percentage of the negative control.
The study was performed in three independent experiments. The obtained results are presented as mean values ± SD (standard deviation). The assessment of the cytotoxicity data used a one-way analysis of variance (ANOVA) followed by Dunnett’s post hoc test, which was applied to determine significance relative to the negative control.

S. aureus ATCC 25923 = assay: micro-dilution broth method (MIC, MBC); type: cell-based, Staphylococcus aureus
[1] = system: S. epidermidis ATCC 12228; assay: micro-dilution broth method (MIC, MBC); type: cell-based, Staphylococcus epidermidis
M. luteus ATCC 10240 = assay: micro-dilution broth method (MIC, MBC); type: cell-based, Micrococcus luteus
B. cereus ATCC 10876 = assay: micro-dilution broth method (MIC, MBC); type: cell-based, Bacillus cereus
A. israeli ATCC 10049 = assay: micro-dilution broth method (MIC, MBC); type: cell-based, Actinomyces israelii
P. acnes ATCC 11827 = assay: micro-dilution broth method (MIC, MBC); type: cell-based, Propionibacterium acnes
[2] = system: C. perfringens ATCC 13124; assay: microbe, parasite or virus in culture; type: cell-based, Clostridium perfringens
C. jejunii ATCC 33291 = assay: micro-dilution broth method (MIC, MBC); type: cell-based, Campylobacter jejunii
K. pneumoniae ATCC 13883 = assay: micro-dilution broth method (MIC, MBC); type: cell-based, Klebsiella pneumoniae
P. aeruginosa ATCC 9027 = assay: micro-dilution broth method (MIC, MBC); type: cell-based, Pseudomonas aeruginosa
B. fragilis ATCC 10240 = assay: micro-dilution broth method (MIC, MBC); type: cell-based, Bacteroides fragilis
V. parvula ATCC 10790 = assay: micro-dilution broth method (MIC, MBC); type: cell-based, Veillonella parvula
[3] = S. aureus ATCC 25923, value in brackets
[4] = S. epidermidis ATCC 12228, value in brackets
[5] = M. luteus ATCC 10240, value in brackets
[6] = B. cereus ATCC 10876, value in brackets
[7] = A. israeli ATCC 10049, value in brackets
[8] = P. acnes ATCC 11827, value in brackets
[9] = C. perfringens ATCC 13124, value in brackets
[10] = C. jejunii ATCC 33291, value in brackets
[11] = K. pneumoniae ATCC 13883, value in brackets
[12] = P. aeruginosa ATCC 9027, value in brackets
[13] = B. fragilis ATCC 10240, value in brackets
[14] = V. parvula ATCC 10790, value in brackets

O=[N+]([O-])[O-].[Ag+] [AgNO3, Silver nitrate]
3.9 mg/L: MIC ([1]; S. epidermidis ATCC 12228) | MIC (M. luteus ATCC 10240; M. luteus ATCC 10240) | MBC (P. aeruginosa ATCC 9027; P. aeruginosa ATCC 9027) | MIC (P. aeruginosa ATCC 9027; P. aeruginosa ATCC 9027)
0.74 µM/mL: MBC (C. jejunii ATCC 33291; [10])
0.003 µM/mL: MBC (A. israeli ATCC 10049; [7]) | MIC (A. israeli ATCC 10049; [7])
0.09 µM/mL: MBC [1, 4] | MIC (B. fragilis ATCC 10240; [13]) | MBC (V. parvula ATCC 10790; [14])
0.185 µM/mL: MBC (S. aureus ATCC 25923; [3]) | MBC (M. luteus ATCC 10240; [5]) | MIC (B. cereus ATCC 10876; [6])
> 10 µM: IC50 (HepG2 cells)
0.049 µM/mL: MIC (S. aureus ATCC 25923; [3]) | MBC (K. pneumoniae ATCC 13883; [11]) | MIC (K. pneumoniae ATCC 13883; [11]) | MIC (V. parvula ATCC 10790; [14])
7.8 mg/L: MIC (S. aureus ATCC 25923; S. aureus ATCC 25923) | MBC (K. pneumoniae ATCC 13883; K. pneumoniae ATCC 13883) | MIC (K. pneumoniae ATCC 13883; K. pneumoniae ATCC 13883) | MIC (V. parvula ATCC 10790; V. parvula ATCC 10790)
0.37 µM/mL: MBC (B. cereus ATCC 10876; [6]) | MBC (P. acnes ATCC 11827; [8]) | MIC (P. acnes ATCC 11827; [8]) | MBC [2, 9] | MIC [2, 9] | MIC (C. jejunii ATCC 33291; [10]) | MBC (B. fragilis ATCC 10240; [13])
0.49 mg/L: MBC (A. israeli ATCC 10049; A. israeli ATCC 10049) | MIC (A. israeli ATCC 10049; A. israeli ATCC 10049)
0.025 µM/mL: MIC [1, 4] | MIC (M. luteus ATCC 10240; [5]) | MBC (P. aeruginosa ATCC 9027; [12]) | MIC (P. aeruginosa ATCC 9027; [12])
125 mg/L: MBC (C. jejunii ATCC 33291; C. jejunii ATCC 33291)
62.5 mg/L: MBC (B. cereus ATCC 10876; B. cereus ATCC 10876) | MBC (P. acnes ATCC 11827; P. acnes ATCC 11827) | MIC (P. acnes ATCC 11827; P. acnes ATCC 11827) | MBC ([2]; C. perfringens ATCC 13124) | MIC ([2]; C. perfringens ATCC 13124) | MIC (C. jejunii ATCC 33291; C. jejunii ATCC 33291) | MBC (B. fragilis ATCC 10240; B. fragilis ATCC 10240)
31.3 mg/L: MBC (S. aureus ATCC 25923; S. aureus ATCC 25923) | MBC (M. luteus ATCC 10240; M. luteus ATCC 10240) | MIC (B. cereus ATCC 10876; B. cereus ATCC 10876)
15.6 mg/L: MBC ([1]; S. epidermidis ATCC 12228) | MIC (B. fragilis ATCC 10240; B. fragilis ATCC 10240) | MBC (V. parvula ATCC 10790; V. parvula ATCC 10790)
